Literature values, collected in patent US9907782B2, “Treatment or prevention of seborrheic keratosis using artemisinin and derivatives thereof” (EPIPHARM AG, priority 2014, dated 2018).

What was measured:
melanin synthesis = settings: according to US 2010/0061948 A1, allegedly
tyrosinase = molecular target: T1, tyrosinase (Homo sapiens, UniProt P14679); settings: according to US 2010/0061948 A1, allegedly
T1 sequence (P14679 19-529): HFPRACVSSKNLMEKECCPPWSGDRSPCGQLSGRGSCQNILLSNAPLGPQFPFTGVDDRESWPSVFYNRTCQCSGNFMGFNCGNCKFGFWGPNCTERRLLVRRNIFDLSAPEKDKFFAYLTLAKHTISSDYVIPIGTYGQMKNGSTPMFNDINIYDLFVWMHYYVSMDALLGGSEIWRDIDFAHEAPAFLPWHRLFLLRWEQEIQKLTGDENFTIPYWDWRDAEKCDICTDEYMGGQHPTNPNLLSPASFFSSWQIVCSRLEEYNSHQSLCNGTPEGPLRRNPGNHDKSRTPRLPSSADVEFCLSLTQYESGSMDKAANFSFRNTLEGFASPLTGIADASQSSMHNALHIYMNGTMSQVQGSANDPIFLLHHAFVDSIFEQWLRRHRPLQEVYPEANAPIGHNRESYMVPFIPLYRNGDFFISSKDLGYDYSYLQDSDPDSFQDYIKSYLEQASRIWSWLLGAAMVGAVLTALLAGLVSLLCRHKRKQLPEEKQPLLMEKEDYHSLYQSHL

psoriasis = settings: topical; three psoriasis patients
[1] = test system: seborrheic keratosis lesions; settings: for clinical improvement: once daily application, calcipotriene 0.005% ointment, imiquimod 5% cream
[2] = test system: seborrheic keratosis lesions

Question: For `C[C@@H]1CC[C@H]2[C@@H](C)C(=O)O[C@@H]3O[C@@]4(C)CC[C@@H]1[C@]32OO4` [artemisinin], which melanin synthesis (melanin synthesis) is on record?
Answer: Its melanin synthesis is “suppressed”.

Question: What about the tyrosinase activity (tyrosinase) of the same compound?
Answer: Its tyrosinase activity is “suppressed”.

Question: What about the treatment of psoriasis (psoriasis) of the same compound?
Answer: The treatment of psoriasis was “successfully”.

Question: And the solubility in water?
Answer: The solubility in water was “very hard to dissolve in water”.

Question: With `C[C@H]1[C@H](OC(=O)CCC(=O)O)O[C@@H]2O[C@@]3(C)CC[C@H]4[C@H](C)CC[C@@H]1[C@@]24OO3` [artesunate] as the compound, how does the solubility in water read?
Answer: The solubility in water was “more water-soluble”.

Question: Which clinical improvement ([1]; tazarotene 0.1% cream) does the source give for `C=C1/C(=C\C=C2/CCC[C@]3(C)[C@@H]([C@H](C)/C=C/[C@@H](O)C4CC4)CC[C@@H]23)C[C@@H](O)C[C@@H]1O` [calcipotriene] here?
Answer: Its clinical improvement is “did not result in any clinical improvement”.

Question: Which solubility in water does the source give for `C[C@H]1[C@@H](O)O[C@@H]2O[C@@]3(C)CC[C@H]4[C@H](C)CC[C@@H]1[C@@]24OO3` [dihydroartemisinin] here?
Answer: The solubility in water was “more water-soluble”.

Question: With `CC(C)Cn1cnc2c(N)nc3ccccc3c21` [imiquimod] as the compound, how does the clinical improvement ([1]; tazarotene 0.1% cream) read?
Answer: The clinical improvement was “did not result in any clinical improvement”.

Question: For `CCOC(=O)c1ccc(C#Cc2ccc3c(c2)C(C)(C)CCS3)nc1` [tazarotene], which “clinical and histological improvement” value ([1]; bi-daily application, tazarotene 0.1% cream) is on record?
Answer: The value was “less than half the patients”.

Question: And the clinical improvement ([1]; tazarotene 0.1% cream)?
Answer: Its clinical improvement is “did not result in any clinical improvement”.

Question: What about the “patients reporting burning, pruritus and redness (irritation)” value ([1]; topical tazarotene) of the same compound?
Answer: The value was “⅔”.

Question: Which side effects ([2]; 50% urea under occlusion) does the source give for `NC(N)=O` [urea] here?
Answer: The side effects was “no side effects were reported”.

Question: And the “thickness of seborrheic keratosis lesions” value ([2]; 50% urea under occlusion and digitally scraping the lesions, lesions did persist albeit with reduced size)?
Answer: Its value is “some reduction of the thickness”.
